# Key:
# [1] = test system: human coronavirus (HCoV) 229E; assay: microbe, parasite or virus in culture; conditions: MRC5, 72 h
# in vitro [2] = conditions: human
# in vitro [3] = conditions: human; remark: listed apart in the source
SMILES,EC50 [1],CC50 (in vitro [2]),CC50 at 3 days (in vitro [2]),CC50 (in vitro [3])
"CCC(CC)COC(=O)[C@H](C)N[P@](=O)(OC[C@H]1O[C@@](C#N)(c2ccc3c(N)ncnn23)[C@H](O)[C@@H]1O)Oc1ccccc1 [Remdesivir, reference compound]",0.03 µM,49.2 µM,,
C/C=C/C[C@@H](C)[C@@H](O)[C@H]1C(=O)N[C@@H](CC)C(=O)N(C)[C@H](SCCN(C)C)C(=O)N(C)[C@@H](CC(C)(C)O)C(=O)N[C@@H](C(C)C)C(=O)N(C)[C@@H](CC(C)C)C(=O)N[C@@H](C)C(=O)N[C@H](C)C(=O)N(C)[C@@H](CC(C)C)C(=O)N(C)[C@@H](CC(C)C)C(=O)N(C)[C@@H](C(C)C)C(=O)N1C [WS-635],5.16 µM,,46.8 µM,> 100 µM
